System: isolated human hair follicles
Experiment: in vitro hair follicle growth test (elongation of isolated hair follicles in culture medium)
Assay type: cell-based
Method: The effect of compounds on hair growth was assessed using an in vitro test which measures the elongation of isolated human hair follicles in a culture medium.
This test includes the important step of isolating hair follicles having an undamaged hair bulb from skin, preferably from human skin, by microdissection.
The critical step of separating the hair follicle with intact undamaged hair bulb from the subcutaneous fatty tissue in which it is situated accordingly involves severing the hair shaft of the follicle at a point below the epidermis of skin surface, so as to leave the hair bulb intact and undamaged while still bearing a portion of the hair shaft.
Preferably, the hair shaft of the follicle is severed at the dermal-subcutaneous fat interface.
Any suitable cutting instrument can be employed to sever the hair shaft in this manner, but a keratotome or a scalpel are preferred.
The hair bulb with a hair shaft stump attached is then isolated from the skin by mechanically separating the hair from loosely adhering subcutaneous fat which normally surrounds the hair bulb. This is achieved after the dermis or upper layer of the skin has been separated and removed, to avoid damaging the hair bulb as it is pulled away.
The hair bulb together with hair shaft stump attached, is then transferred in an otherwise undamaged and fully functioning, viable state to a nutrient medium.
The hair follicles isolated by the technique described herein are transferred to a suitable culture medium for subsequent testing of substances that can then influence their future development.
The procedure now to be described represents a preferred method of culture and testing of hair growth.
In accordance with the preferred method of culture, isolated hair follicles are maintained in 500µl of Williams E medium, either with or without a test hair growth substance, at 37°C in an atmosphere of 5% CO₂ + 95% air in individual wells of a 24 multiwell dish (Corning), which permits detailed measurements to be made of the length of individual hair follicles.
Williams E medium is available from FLOW Laboratory under Catalogue No. 12-502. The formula of Williams E medium is described by Williams GM, et al., in Experimental Cell Research 69 (1971) on page 106.
Hair shaft length measurements can be made on these follicles, using a Nikon Diaphot inverted binocular or similar microscope with eye piece measuring graticules, […], during which time the follicles will signficiantly increase in length in response to a hair growth stimulant.
The response of an isolated hair follicle to a test substance, can accordingly be assessed by mesuring the increase in length, if any, in the presence of a test substance against a control. […]

## NC(=O)CC[C@H](N)C(=O)O [Glutamine, glutamine]
144 h, 2mM in Williams E medium supplemented with glucose (50mM), relative to a control value of 1.0, mean of 5 follicles from each of 5 human subjects (25 follicles), read-out: Hair follicle growth after 6 days
  activity at 2000 µM: 400%
Summary in words of the table's results, Williams E medium supplemented with glucose (50mM)
  hair growth, as compared with the control: most effective

## CC(O)CC(=O)O (stereo not shown) [Na 3-hydroxybutyrate]
144 h, 1 mM in Williams E medium supplemented with glucose (50mM), relative to a control value of 1.0, mean of 5 follicles from each of 5 human subjects (25 follicles), read-out: Hair follicle growth after 6 days
  activity at 1000 µM: 280%

## CCCCCCCCCCCCCCCC(=O)O [Na palmitate]
144 h, 0.5mM in Williams E medium supplemented with glucose (50mM), relative to a control value of 1.0, mean of 5 follicles from each of 5 human subjects (25 follicles), read-out: Hair follicle growth after 6 days
  activity at 500 µM: 180%
